Data reported in article PMC9501525, “Conjugation of a Cationic Cell-Penetrating Peptide with a Novel Kunitzin-like Trypsin Inhibitor: New Insights for Enhancement of Peptide Bioactivities” (Pharmaceutics, 2022).
Peptide text beside a SMILES is read from it.

Columns and labels:
Assay type in all cases: cell-based
[1] = test system: MRC-5 human pulmonary fibroblast cells; experiment: MTT cell antiproliferation assay; settings: MRC-5 normal cells, 24 h of treatment, 10^−9–10^−4 M
Experimental: (§1) The antiproliferative activities of the synthesized peptides were assessed on six human cancer cell lines (PC-3, H157, H460, H838, MCF-7, U251MG) and two human normal cell lines (HMEC-1 and MRC-5) using the MTT cell viability assay. Human lung cancer cells (H838, H157, and H460) and human prostate cancer cells (PC-3) were cultured in complete growth medium (CGM) (Roswell Park Memorial Institute (RPMI) 1640 Medium (Gibco, Paisley, UK): Fetal bovine serum (FBS) (Gibco, Campinas, Brazil): Penicillin-streptomycin solution (PS) (Gibco, Grand Island, NY, USA) 89/10/1 v/v/v). Human glioblastoma astrocytoma (U251MG) and human breast cancer cell (MCF-7) were cultured in complete growth medium (Dulbecco’s Modified Eagle medium (DMEM) (Gibco, Paisley, UK): FBS: PS 89/10/1 v/v/v). Human microvascular endothelial cells (HMEC-1) and human pulmonary fibroblast cells (MRC-5) were cultured in MCDB131 medium (supplemented with 10% FBS, 1% PS, 10 ng/mL epidermal growth factor, 1 µg/mL hydrocortisone, and 10 mM glutamine) and Eagle’s Minimal Essential Medium (EMEM) (supplemented with 10% FBS and 1% PS), respectively. Cell suspension, containing 8 × 10^3 cells per 100 µL, was first added to 96-well plates for overnight incubation. Then, the adherent cells in the 96-well plates were subject to cell starvation using the serum free medium treatment for at least 4 h to ensure that the cells were all in the same growth cycle. The peptide solutions, with final concentrations of 10^−9–10^−4 M, were prepared with serum free medium and added onto the plate. In addition, Triton X-100 (0.1%) (Sigma-Aldrich, St. Louis, MO, USA) was used as a positive control. After 24 h of administration, the MTT solution was added to the plate and incubated for 2 h. Then, the supernatant was discarded and DMSO was added to dissolve the purple formazan crystals. The absorbance was measured in all wells using the Synergy HT plate reader at a wavelength of 570 nm.

[2] = test system: MCF-7 human breast cancer cells; experiment: MTT cell antiproliferation assay; settings: MCF-7, MTT, 24 h of treatment, serum free medium, 10^−9–10^−4 M
Experimental: as §1

[3] = test system: U251MG human glioblastoma cells; experiment: MTT cell antiproliferation assay; settings: 24 h of treatment, serum free medium, 10^−9–10^−4 M
Experimental: as §1

[4] = test system: MRC-5 human pulmonary fibroblast cells; experiment: LDH cytotoxicity assay; settings: MRC-5, 24 h, highest test concentration 100 µM; relative to lysis buffer maximum
Experimental: A CyQUANT™ LDH Cytotoxicity Detection Kit (Thermo Fisher Scientific, Waltham, MA, USA) was used to detect the LDH released from human microvascular endothelial cell line (HMEC-1) and human pulmonary fibroblast cell line (MRC-5). Cells were cultured as for the MTT antiproliferation assay described previously. After incubation, the peptide solutions at the same concentrations as in the previous method were added to the cells for further incubation of 24 h. Among these, the positive control group, representing the maximal LDH release, was obtained from the 10 × lysis buffer supplied in the kit. The lysis buffer was added to the control group and co-cultured for 45 min, while deionized water was added to the spontaneous LDH release control. Subsequently, the same volume of sample as the reaction mixture was withdrawn, added into a new 96-well plate, and mixed well. After co-culturing under dark conditions for 30 min, an equal amount of stop solution was added to stop the reaction. Absorbance values of all experimental groups were measured at wavelengths of 490 and 680 nm using the Synergy HT plate reader.

## CC(C)C[C@H](NC(=O)[C@H](CCCCN)NC(=O)[C@H](C)NC(=O)[C@H](C)NC(=O)CNC(=O)CNC(=O)[C@H](CCCNC(=N)N)NC(=O)[C@H](CCCNC(=N)N)NC(=O)[C@H](CCCNC(=N)N)NC(=O)[C@H](CCC(N)=O)NC(=O)[C@H](CCCNC(=N)N)NC(=O)[C@H](CCCNC(=N)N)NC(=O)[C@H](CCCCN)NC(=O)[C@H](CCCCN)NC(=O)[C@@H](N)CCCNC(=N)N)C(=O)N1CCC[C@H]1C(=O)N[C@@H](Cc1ccccc1)C(=O)N[C@@H](CCCNC(=N)N)C(=O)N[C@H]1CSSC[C@@H](C(=O)O)NC(=O)[C@H](Cc2ccccc2)NC(=O)[C@H](C)NC(=O)[C@H](C)NC(=O)[C@H](CCCCN)NC1=O [TAT-KOV2] (HELM PEPTIDE1{R.K.K.R.R.Q.R.R.R.G.G.A.A.K.L.P.F.R.C.K.A.A.F.C}$PEPTIDE1,PEPTIDE1,19:R3-24:R3$$$V2.0)
[1]
  IC50: 64.9 µM

## CC(C)C[C@H](NC(=O)[C@H](CCCCN)NC(=O)[C@H](C)NC(=O)[C@H](C)NC(=O)CNC(=O)CNC(=O)[C@H](CCCNC(=N)N)NC(=O)[C@H](CCCNC(=N)N)NC(=O)[C@H](CCCNC(=N)N)NC(=O)[C@H](CCC(N)=O)NC(=O)[C@H](CCCNC(=N)N)NC(=O)[C@H](CCCNC(=N)N)NC(=O)[C@H](CCCCN)NC(=O)[C@H](CCCCN)NC(=O)[C@@H](N)CCCNC(=N)N)C(=O)N1CCC[C@H]1C(=O)N[C@@H](Cc1ccccc1)C(=O)N[C@@H](CCCNC(=N)N)C(=O)N[C@H]1CSSC[C@@H](C(=O)O)NC(=O)[C@H](Cc2ccccc2)NC(=O)[C@H](C)NC(=O)[C@H](C)NC(=O)[C@H](Cc2ccccc2)NC1=O [TAT-F9-KOV2] (HELM PEPTIDE1{R.K.K.R.R.Q.R.R.R.G.G.A.A.K.L.P.F.R.C.F.A.A.F.C}$PEPTIDE1,PEPTIDE1,19:R3-24:R3$$$V2.0)
[2]
  IC50: 11.7 µM
[1]
  IC50: 43.6 µM
[3]
  IC50: 7.6 µM
[4]
  LDH release: more than 10%
